Columns and labels:
[1] = test system: pathological sputum of bronchitic rabbits; experiment: Mucus regulating properties in bronchitic rabbits (sputum AUC as % compared to bronchitic controls); format: in vivo, male New Zealand white rabbits; conditions: for mucus regulating activity (in words): rabbit, in vivo; for Fucose (mg/ml), AUC as a 100% compared to bronchitic controls / Galactose (mg/ml), AUC as a 100% compared to bronchitic controls / Mucus production (ml/kg), AUC as a 100% compared to bronchitic controls / Phospholipids (mg/ml), AUC as a 100% compared to bronchitic controls / Protein (mg/ml), AUC as a 100% compared to bronchitic controls / Sialic acid (mg/ml), AUC as a 100% compared to bronchitic controls / Viscosity (cps), AUC as a 100% compared to bronchitic controls: Table 2, oral, equimolecular amounts to S-carboxymethyl cysteine
Procedure: The animals are submitted to inhalation of a 5% H2 SO3 aqueous solution by aerosol (exposition of 3 hours a day for 3 alternate days), to induce a chronic bronchial inflammatory disease which causes a production of pathological sputum in the bronchial tree.
Aim of the experiments is to evaluate modifications of selective parameters such as dry weight of the sputum, viscosity, content in proteins, phospholipids, galactose, sialic acid and fucose, induced in this pathological sputum by pharmacological treatment with the compounds of the invention.
To this purpose, the sputum produced in the bronchial tree is collected daily, through a "T" shaped glass cannula, inserted in the trachea, before and after oral twice a day (9.00 a.m. and 4.00 p.m.) treatment with one of the compounds of the invention.
The schedule treatment procedure is shown in the following Scheme 1: [drawing 21] where 0 indicates the day of implantation of the tracheal cannula; -7-5-3 indicate the days of H2 SO3 treatment (H); 1, 2, 3, 4 indicate the days of oral administration of the compounds of the invention (T) and the time of mucus collection (M).
The mucus collected in day 1 in the morning is considered as a blank; 7 indicates the day of the animal sacrifice after the mucous collection.
The sputum samples are stored in the freezer (-20° C.) until the investigation of biological and rheological parameters is carried out.
The samples are investigated for relative viscosity, measured at 37° C. with a Brookfield viscometer (model LT VD) equipped with a 1,565° cone-plate, and aliquoted for biochemical analysis of protein, phospholipids, galactose, sialic acid and fucose contents. Dry weight of the mucus is also determined. For each parameter, cumulative data are referred to a seven days period after the beginning of the treatment and they are extrapolated using the AUC method (area under curve) calculated by the trapazoidal rule. Finally the data are compared with data obtained from controls (vehicle treatment), non bronchitic rabbits (vehicle treatment) and positive controls bronchitic rabbits treated with 0.153M […].

[2] = test system: cough induced by citric acid aerosol in guinea pigs; experiment: Guinea pig cough test (citric acid aerosol, Charlier procedure); format: in vivo; conditions: Cavia porcellus, inhaled or nasal, antitussive test not given
[3] = test system: cough induced by citric acid aerosol in guinea pigs; experiment: as above; format: in vivo
Procedure: (§1) The techniques described by Charlier et al. (Arch. Int. Pharmacodyn. 134, 306, 1961) and by Stefko et al. (J. Pharm. Exp. Therap., 108, 217, 1953), adapted with minor modifications, are used to investigate the antitussive properties of the compounds of the invention. Codeine phosphate is used as positive reference compound.
According to the Charlier procedure guinea pigs are exposed to a citric acid aerosol (7.5%) and cough is recorded 60 minutes after the antitussive treatment by i.p. route. Male animals of 300-400 g pigs are placed in perspex box (20×30×30 cm) connected to an aerosol compressor; the animals are subjected to a citric acid saturated atmosphere, 60 minutes after the i.p. injection of a compound of the invention (0.1 and 0.3M solutions; 1 ml/kg).
The total number of cough strokes and the delay of the first cough are recorded during the first five minutes.
Five guinea pigs are used for each dose level and the results are compared with controls (vehicle treatment) and codeine phosphate 0.07M solution (standard treatment).
ED50 and the corresponding delay of first cough stroke are calculated.
The data obtained by i.p. administration are confirmed by oral administration.

[4] = test system: cough induced by electric stimulation in dogs; experiment: Dog cough test (cough induced by electric stimulation, Stefko procedure); format: in vivo, conscious mongrel dogs
Procedure: as §1
In the Stefko procedure, conscious mongrel dogs (15±3 kg body weight) are used; the compounds of the invention are tested for their ability to inhibit cough induced by electric stimulation.
Under general anesthesia, two insulated nichrome wires (0.4 mm diameter) are surgically implanted into the submucosa of the trachea.
About two days later, the dogs are placed in a sling and the exteriorized electrodes are connected to an electric stimulating device (such as Grass S 48 Mod.).
The stimulation parameters such as: delay 0.01 msec, duration 1 msec, frequency 30 Hz, are used.
An electrical stimulus of 1 sec is applied 10 times at 5 sec intervals in order to determine the minimum voltage necessary for eliciting reproducible cough responses. Then, tussive responses to the electrical stimuli are registered at 15, 30, 60, 90, 120, 150, 180, 240, 300 and 360 minutes after oral administration of the compounds of the invention.
The tussive responses are scored as follows: 1: no response; 2: sigh or exaggerated expiration; 3: marked cough; 4: one marked cough and one exaggerated expiration: 5: two marked coughs.
Six dogs are employed for each determination and the mean activity is calculated.
The inhibition percent of the cough response and the duration of activity are compared with codeine.

Acute toxicity in mice = conditions: mouse, in vivo
mice = experiment: Sedative effect; format: in vivo
[5] = test system: guinea pig trachea smooth muscle strips; experiment: In vitro relaxation of guinea pig trachea smooth muscle strips contracted by methacoline; conditions: Cavia porcellus, contracted by methacoline, read-out: ED50 (relaxation of trachea smooth muscle strips)

Structure (SMILES): O=C(Cn1ccnc1)N1CCSC1COc1ccccc1O (stereo not shown) [3-(imidazol-1'-yl)acetyl-2-[(o-hydroxyphenoxy)methyl]thiazolidone]
- mucus regulating activity (in words) [1]: strong mucus regulating activity
- ED50 [2]: 96 mg/kg

Structure (SMILES): COc1ccccc1OCC1SCCN1C(=O)Cn1ccnc1 (stereo not shown) [3-(imidazol-1-yl)acetyl-2-(o-methoxyphenoxy)methyl-thiazolidine]
- Fucose (mg/ml), AUC as a 100% compared to bronchitic controls [1]: 97.5%
- Galactose (mg/ml), AUC as a 100% compared to bronchitic controls [1]: 21.8%
- Mucus production (ml/kg), AUC as a 100% compared to bronchitic controls [1]: 162.5%
- Phospholipids (mg/ml), AUC as a 100% compared to bronchitic controls [1]: 65.8%
- Protein (mg/ml), AUC as a 100% compared to bronchitic controls [1]: 55.2%
- Sialic acid (mg/ml), AUC as a 100% compared to bronchitic controls [1]: 63.8%
- Viscosity (cps), AUC as a 100% compared to bronchitic controls [1]: 39.1%
- mucus regulating activity (in words) [1]: strong mucus regulating activity
- ED50 [2]: 40.6 mg/kg

Structure (SMILES): COc1ccccc1OCC1SCCN1C(=O)OC(C)(C)C (stereo not shown) [3-BOC-2-(O-methoxyphenoxy)-methyl-thiazolidine]
- ED50 [2]: 3 to 30 mg/kg

Structure (SMILES): COc1ccccc1OCC1SCCN1C(=O)C1CC1 (stereo not shown) [3-cyclopropylcarbonyl-2-(o-methoxyphenoxy)methylthiazolidine]
- antitussive properties (in words) [3]: devoid of any antitussive properties
- Fucose (mg/ml), AUC as a 100% compared to bronchitic controls [1]: 103.6%
- Galactose (mg/ml), AUC as a 100% compared to bronchitic controls [1]: 60.0%
- Mucus production (ml/kg), AUC as a 100% compared to bronchitic controls [1]: 90%
- Phospholipids (mg/ml), AUC as a 100% compared to bronchitic controls [1]: 74.5%
- Protein (mg/ml), AUC as a 100% compared to bronchitic controls [1]: 57.9%
- Sialic acid (mg/ml), AUC as a 100% compared to bronchitic controls [1]: 60%
- Viscosity (cps), AUC as a 100% compared to bronchitic controls [1]: 92.6%
- antitussive properties (in words) ([4]; dog cough test): devoid of any antitussive properties

Structure (SMILES): CCOC(=O)C(=O)N1CCSC1COc1ccccc1OC (stereo not shown) [3-ethoxyoxalyl-2-(o-methoxyphenoxy)methyl-thiazolidine]
- antitussive properties (in words) [3]: devoid of any antitussive properties
- Fucose (mg/ml), AUC as a 100% compared to bronchitic controls [1]: 149.3%
- Galactose (mg/ml), AUC as a 100% compared to bronchitic controls [1]: 52.3%
- Mucus production (ml/kg), AUC as a 100% compared to bronchitic controls [1]: 108.7%
- Phospholipids (mg/ml), AUC as a 100% compared to bronchitic controls [1]: 59.8%
- Protein (mg/ml), AUC as a 100% compared to bronchitic controls [1]: 62%
- Sialic acid (mg/ml), AUC as a 100% compared to bronchitic controls [1]: 56.8%
- Viscosity (cps), AUC as a 100% compared to bronchitic controls [1]: 65.1%
- antitussive properties (in words) ([4]; dog cough test): devoid of any antitussive properties

Structure (SMILES): COc1ccccc1OCC1SCCN1C(=O)CN (stereo not shown) [3-glycinyl-2-(O-methoxyphenoxy)methyl-thiazolidine]
- ED50 [2]: 3 to 30 mg/kg

Structure (SMILES): CCOC(=O)[C@@H]1CSC(COc2ccccc2OC)N1C(=O)CSC(C)=O (stereo partly shown) [4-carbethoxy-2-(o-methoxyphenoxy)methyl-3-acetylthioacetyl-thiazolidine]
- LD50 (Acute toxicity in mice; ip): 670 mg/kg
- LD50 (Acute toxicity in mice; po, os): 760 mg/kg
- sedative effect, starting dose (mice): ≥ 30 mg/kg
- Fucose (mg/ml), AUC as a 100% compared to bronchitic controls [1]: 111%
- Galactose (mg/ml), AUC as a 100% compared to bronchitic controls [1]: 69%
- Mucus production (ml/kg), AUC as a 100% compared to bronchitic controls [1]: 65%
- Phospholipids (mg/ml), AUC as a 100% compared to bronchitic controls [1]: 102%
- Protein (mg/ml), AUC as a 100% compared to bronchitic controls [1]: 79%
- Sialic acid (mg/ml), AUC as a 100% compared to bronchitic controls [1]: 78%
- Viscosity (cps), AUC as a 100% compared to bronchitic controls [1]: 91%

Structure (SMILES): COc1ccccc1OCC1N[C@H](C(=O)O)CS1 (stereo partly shown) [4-carboxy-2-(o-methoxyphenoxymethyl)thiazolidine]
- ED50 ([3]; guinea pig cough test, i.p., 60 minutes after treatment): inactive
- Fucose (mg/ml), AUC as a 100% compared to bronchitic controls [1]: 55%
- Galactose (mg/ml), AUC as a 100% compared to bronchitic controls [1]: 29%
- Mucus production (ml/kg), AUC as a 100% compared to bronchitic controls [1]: 95%
- Phospholipids (mg/ml), AUC as a 100% compared to bronchitic controls [1]: 49%
- Protein (mg/ml), AUC as a 100% compared to bronchitic controls [1]: 48%
- Sialic acid (mg/ml), AUC as a 100% compared to bronchitic controls [1]: 52%
- Viscosity (cps), AUC as a 100% compared to bronchitic controls [1]: 40%
- duration of action ([4]; dog cough test, in words): middle
- % inhibition of cough stimulus ([4]; dog, oral, dose not given): 43.8%

Structure (SMILES): Cn1c(=O)c2c(ncn2CC(O)CO)n(C)c1=O (stereo not shown) [dihydroxypropyltheophylline, reference compound]
- EC50 [5]: 76 µM

Reference: patent US4798898A, “Antitussive and mucus regulating 2-substituted thiazolidines” (Boehringer Biochemia Robin S.p.A., priority 1984, dated 1989)
